Measured values: patent US20070167408A1, “NOVEL ALKYL PHOSPHOLIPID DERIVATIVES WITH REDUCED CYTOTOXICITY AND USES THEREOF” (ZENTARIS GmbH, priority 2005, published 2007)

Tested on: epimastigotes of Trypanosoma cruzi strain Y
Assay: In vitro activity of miltefosine and benznidazole against epimastigotes
Assay type: cell-based
Conditions: 72 h
Protocol: In vitro activity of Miltefosine and Benznidazole in the course of a combination treatment against Trypanosoma cruzi strain Y was assessed compared to the respective single treatments with miltefosine or benznidazole alone.
Miltefosine and Benznidazol were tested in vitro in combination against epimastigote forms of Trypanosoma cruzi strain Y which were isolated from a chagasic patient in Sao Paulo, Brazil and obtained from Dr. Victor Nussenzweig (Silva, L H. and Nussenzweig, V.; Folia clin. biol., 20: 191-207, 1953). This T. cruzi Y strain can also be ordered at ATCC 50832, while the ATCC strain must be re-adapted by several passages through mice in order to regain the strain's original characteristics of differentiation and virulence.
Epimastigotes were axenially cultured in brain heart infusion medium (BHI, Becton, Dickinson, Cat. No. 221812) supplemented with 10 mg of hemin per liter and 5% heat inactivated fetal calf serum (FCS) at 28° C. with shaking (˜80 rpm) up to a maximum of 10-12 passages, before the cultures were aged to obtain metacyclics that were purified on a DE-52 column (Whatman DEAE cellulose ion exchange column, Waco, Cat. No. 17050-03 or 17050-04) and injected into mice. After 2-4 weeks parasites were recovered from blood and placed back into axenic culture.
Stock solutions of Miltefosine and Benznidazol in concentrations of 10 mg/ml and 20 mg/ml dissolved in methanol were used. Stock solutions were serially diluted with a factor of 2 in BHI-FCS medium. For Benznidazol the following testing concentrations were used: 80 μg/ml, 40 μg/ml, 20 μg/ml, 10 μg/ml, 5 μg/ml and 2.5 μg/ml. The testing concentrations for Miltefosine were 20 μg/ml, 10 μg/ml, 5 μg/ml, 2.5 μg/ml, 1.25 μg/ml and 0.625 μg/ml.
2×10^6 epimastigotes were incubated in BHI-FCS medium with Miltefosine and Benznidazol in a final volume of 200 μl. After 72 h incubation at 28° C., parasite growth was determined by direct counting the number of parasites with a Neubauer chamber. The 50% inhibitory concentrations were determined by linear regression analysis.

## CCCCCCCCCCCCCCCCOP(=O)([O-])OCC[N+](C)(C)C [miltefosine, hexadecylphosphocholine, reference compound]
Miltefosine 1.25 ug/mL
  Epimastigotes [amount/mL]: 820.000 amount/mL
Miltefosine 2.5 ug/mL
  Epimastigotes [amount/mL]: 290.000 amount/mL
